Measurements taken from article PMC2804269 (Bioconjugate chemistry, 2009).
Bridge positions count the residues as written; N and C are the ends. Peptide text beside a SMILES is read from it. * marks the point of attachment. Benzoyl(4-F) = O=C(c1ccc(F)cc1)*

Columns and labels:
[1] = molecular target: αvβ3 integrin; conditions: binding to αvβ3 integrin; cited from earlier work
[2] = test system: U87MG tumor bearing mice; assay: Dynamic microPET scan of U87MG tumor-bearing mouse; assay type: in vivo; conditions: 35 min p.i., ROI analysis of the heart
[3] = test system: U87MG tumor bearing mice; assay: Static microPET imaging quantification; assay type: in vivo, mouse; conditions: quantification of microPET images
[4] = test system: U87MG tumor bearing mice; assay: Biodistribution in nude mice bearing U87MG xenografts; assay type: in vivo, mouse; conditions: 330 μg c(RGDyK), 0.5 h p.i., P < 0.05
[5] = as above; assay type: in vivo, mouse; conditions: nude, mouse, iv, 740 KBq (20 uCi), total radioactivity, 0.5 h p.i., n = 3
[6] = molecular target: integrin αvβ3 (Homo sapiens) (UniProt P06756); conditions: cited from earlier work
Chain of UniProt P06756 (P06756 31-1048, chain 1 of 2): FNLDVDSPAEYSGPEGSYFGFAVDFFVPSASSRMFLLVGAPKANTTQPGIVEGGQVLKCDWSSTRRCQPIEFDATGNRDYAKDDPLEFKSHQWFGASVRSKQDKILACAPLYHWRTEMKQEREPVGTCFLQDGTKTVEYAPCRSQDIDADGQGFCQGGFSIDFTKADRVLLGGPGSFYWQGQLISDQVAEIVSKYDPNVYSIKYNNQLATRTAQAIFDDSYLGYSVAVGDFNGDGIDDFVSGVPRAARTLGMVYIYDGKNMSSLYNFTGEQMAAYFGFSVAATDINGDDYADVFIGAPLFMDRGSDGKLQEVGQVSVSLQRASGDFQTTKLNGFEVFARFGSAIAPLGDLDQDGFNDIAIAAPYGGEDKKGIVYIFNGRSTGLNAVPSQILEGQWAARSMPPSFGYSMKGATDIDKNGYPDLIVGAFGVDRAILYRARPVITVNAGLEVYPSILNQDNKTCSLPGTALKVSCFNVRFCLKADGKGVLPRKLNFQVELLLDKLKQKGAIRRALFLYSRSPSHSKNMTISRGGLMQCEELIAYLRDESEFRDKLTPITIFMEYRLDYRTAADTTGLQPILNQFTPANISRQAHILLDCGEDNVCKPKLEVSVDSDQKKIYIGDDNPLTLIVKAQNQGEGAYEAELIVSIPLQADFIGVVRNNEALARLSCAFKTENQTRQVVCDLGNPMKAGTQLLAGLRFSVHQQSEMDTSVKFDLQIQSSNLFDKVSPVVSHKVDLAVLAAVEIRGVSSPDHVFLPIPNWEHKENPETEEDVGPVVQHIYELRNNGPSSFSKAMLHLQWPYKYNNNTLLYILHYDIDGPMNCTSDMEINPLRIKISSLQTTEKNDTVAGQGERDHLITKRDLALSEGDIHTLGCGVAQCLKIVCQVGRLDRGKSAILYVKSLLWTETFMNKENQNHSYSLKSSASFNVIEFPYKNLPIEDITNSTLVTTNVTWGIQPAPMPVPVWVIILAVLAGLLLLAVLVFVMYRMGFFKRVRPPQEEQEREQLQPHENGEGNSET
Chain of UniProt P06756 (P05106 27-788, chain 2 of 2, further chain): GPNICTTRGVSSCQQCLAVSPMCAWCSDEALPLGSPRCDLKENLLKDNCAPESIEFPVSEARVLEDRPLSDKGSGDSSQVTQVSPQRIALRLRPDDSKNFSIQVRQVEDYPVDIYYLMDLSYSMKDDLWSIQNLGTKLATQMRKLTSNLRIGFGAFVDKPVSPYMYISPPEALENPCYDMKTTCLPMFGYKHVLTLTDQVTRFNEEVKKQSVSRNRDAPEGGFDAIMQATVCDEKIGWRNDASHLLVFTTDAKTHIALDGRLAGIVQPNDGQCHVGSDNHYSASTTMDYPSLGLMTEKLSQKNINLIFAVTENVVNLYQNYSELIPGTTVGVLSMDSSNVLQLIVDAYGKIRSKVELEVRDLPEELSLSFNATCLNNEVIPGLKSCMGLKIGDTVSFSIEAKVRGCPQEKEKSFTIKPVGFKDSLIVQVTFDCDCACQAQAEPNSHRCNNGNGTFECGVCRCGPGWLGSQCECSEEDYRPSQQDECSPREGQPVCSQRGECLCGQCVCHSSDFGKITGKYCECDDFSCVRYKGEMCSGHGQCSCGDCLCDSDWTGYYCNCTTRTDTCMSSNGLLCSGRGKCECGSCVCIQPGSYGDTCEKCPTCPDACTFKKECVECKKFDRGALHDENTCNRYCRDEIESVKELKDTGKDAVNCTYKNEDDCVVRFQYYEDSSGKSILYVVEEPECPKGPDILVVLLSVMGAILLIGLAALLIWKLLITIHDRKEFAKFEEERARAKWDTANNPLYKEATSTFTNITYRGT

Q: For echistatin, which Kd [1] is on record?
A: The Kd was ~0.3 nM.

Q: What does the source list for CC(C)C[C@@H]1NC(=O)[C@@H]2CSSC[C@@H](C(=O)NCC(N)=O)NC(=O)[C@H](Cc3ccccc3)NC(=O)CNC(=O)[C@H](CC(N)=O)NC(=O)[C@@H]3CCCN3C(=O)CNC(=O)[C@@H]3CSSC[C@H](NC(=O)[C@H](CO)NC(=O)[C@H]([C@@H](C)O)NC(=O)[C@@H]4CCCN4C(=O)[C@H](C)NC(=O)[C@H](Cc4c[nH]c5ccccc45)NC(=O)[C@H](CC(=O)O)NC(=O)CNC(=O)[C@H](CCCNC(=N)N)NC(=O)CNC(=O)[C@H](CCC(N)=O)NC(=O)[C@@H]4CCCN4C(=O)[C@@H](NC(=O)CNC(=O)c4ccc(F)cc4)CSSC[C@H](NC(=O)CNC(=O)[C@H](C)NC1=O)C(=O)N[C@@H](C(C)C)C(=O)N3)C(=O)N[C@@H](CO)C(=O)N[C@@H](CCC(N)=O)C(=O)N[C@@H](CC(=O)O)C(=O)N[C@@H](CO)C(=O)N[C@@H](CC(=O)O)C(=O)N2 [^18F-FB-2.5D] ({Benzoyl(4-F)}-GCPQGRGDWAPTSCSQDSDCLAGCVCGPNGFCG-NH2; disulfide 2-24, 14-26, 20-32; C-terminus assumed)?
A: radioactivity in blood relative to amount at 3 min p.i. [2]: approximately 9.2%; activity remaining in tumor at 1 h p.i. compared to 0.5 h [3]: 56%; inhibition of tumor uptake by co-injection of c(RGDyK) [4]: 70%; tissue uptake at 0.5 h ([5]; blood, blood radioactivity (biodistribution)): 1.32 ± 0.07 %ID/g; tissue uptake at 0.5 h ([5]; kidney, kidney uptake (biodistribution)): 4.24 ± 0.19 %ID/g; tissue uptake at 0.5 h ([5]; liver, liver uptake (biodistribution)): 1.38 ± 0.55 %ID/g

Q: For Echistatin (from UniProt P17347), which Kd [6] is on record?
A: The Kd was 0.3 nM.
